From PubChem BioAssay (NCI)
Values joined by “and” are separate entries in the source; they are usually repeats but may differ in a detail not shown here. Equal values may be shown once.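 Following 48 hours of exposure in 96-well plates, responses at five concentrations were used to interpolate endpoints linearly. GI50 is the concentration that inhibits growth by half. Definition used: TGI = concentration required for complete inhibition of growth.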

Columns and labels:
Experiment in all cases: inhibition of tumour cell growth, NCI panel, 48 h
[1] = tested on: OVCAR-4 ovarian
[2] = tested on: SF-268 CNS
[3] = tested on: HOP-62 NSCLC
[4] = tested on: OVCAR-8 ovarian
[5] = tested on: HS 578T breast
[6] = tested on: 786-0 renal
[7] = tested on: DU-145 prostate
[8] = tested on: NCI-H226 lung

Cc1nn(C)c(COc2ccc(N3CCN(S(=O)(=O)N(C)C)CC3)cc2)c1-c1cccc2c(CCCOc3cccc4ccccc34)c(C(=O)O)n(CCN3CCOCC3)c12
GI50 [1]: 3.4 µM | TGI [1]: 14.1 µM | GI50 [2]: 3.66 µM | TGI [2]: 15.8 µM | GI50 [3]: 3.03 µM | TGI [3]: 14.4 µM | GI50 [4]: 3.51 µM | TGI [4]: 14.7 µM | GI50 [5]: 2.95 µM | TGI [5]: 14.7 µM | GI50 [6]: 2.52 µM | TGI [6]: 6.97 µM | GI50 [7]: 5.03 µM | TGI [7]: 16.7 µM | GI50 [8]: 3.19 µM | TGI [8]: 15.9 µM

CC(C)CCNCC(O)Cn1c2ccccc2c2ccccc21 (stereo unspecified)
GI50 [1]: 12.9 µM | TGI [1]: 27.2 µM | GI50 [2]: 12.2 µM | TGI [2]: 26.4 µM | GI50 [3]: 15.4 µM | TGI [3]: 29.7 µM | GI50 [4]: 13.7 µM | TGI [4]: 33.7 µM | GI50 [5]: 13.8 µM | TGI [5]: 38.9 µM | GI50 [6]: 13.2 µM | TGI [6]: 27.3 µM | GI50 [7]: 14.6 µM | TGI [7]: 27.9 µM | GI50 [8]: 15.7 µM | TGI [8]: 37.9 µM

NC(=O)Nc1cc(-c2cccc(F)c2)sc1C(=O)N[C@H]1CCCNC1
GI50 [1]: 0.222 µM and 0.31 µM | TGI [1]: > 10 µM and 17.3 µM | GI50 [2]: 0.327 µM and 0.458 µM | TGI [2]: 3.35 µM and 4.14 µM | GI50 [3]: 0.0876 µM and 0.292 µM | TGI [3]: 1.67 µM and 2.82 µM | GI50 [4]: 0.131 µM and 0.318 µM | TGI [4]: > 3.36 µM and 2.04 µM | GI50 [5]: 0.0322 µM and 0.197 µM | GI50 [6]: 0.0717 µM and 0.166 µM | TGI [6]: 1.35 µM and 0.634 µM | GI50 [7]: 0.21 µM and 0.435 µM | TGI [7]: 2.07 µM and 3.81 µM | GI50 [8]: 1.09 µM and 0.57 µM | TGI [8]: 8.69 µM and 2.9 µM

NCCN.O=C([O-])CN1CCOCC1.[OH-].[Pt+4]
GI50 [1]: > 100 µM | TGI [1]: > 100 µM | GI50 [2]: > 100 µM | TGI [2]: > 100 µM | GI50 [3]: > 100 µM | TGI [3]: > 100 µM | GI50 [4]: > 100 µM | TGI [4]: > 100 µM | GI50 [5]: > 100 µM | TGI [5]: > 100 µM | GI50 [6]: > 100 µM | TGI [6]: > 100 µM | GI50 [7]: > 100 µM | TGI [7]: > 100 µM | GI50 [8]: > 100 µM | TGI [8]: > 100 µM

COc1ccc(N(/C=C/C(=O)C(F)(F)F)CC(=O)c2ccc(F)cc2)cc1
GI50 [1]: 45.3 µM | TGI [1]: > 100 µM | GI50 [2]: 20.3 µM | TGI [2]: 45.2 µM | GI50 [3]: 20 µM | TGI [3]: 44.9 µM | GI50 [4]: 32.1 µM | TGI [4]: > 100 µM | GI50 [5]: 27.8 µM | TGI [5]: 89.1 µM | GI50 [6]: 21.1 µM | TGI [6]: 52.4 µM | GI50 [7]: 36.2 µM | TGI [7]: > 100 µM | GI50 [8]: 12.1 µM | TGI [8]: 33.3 µM

Cc1ccc(C(=O)NC2CCC2)cc1-c1ccc(C(=O)NCC2CC2)cc1
GI50 [1]: > 25 µM | TGI [1]: > 25 µM | GI50 [2]: > 25 µM | TGI [2]: > 25 µM | GI50 [3]: > 25 µM | TGI [3]: > 25 µM | GI50 [4]: > 25 µM | TGI [4]: > 25 µM | GI50 [5]: > 25 µM | TGI [5]: > 25 µM | GI50 [6]: > 25 µM | TGI [6]: > 25 µM | GI50 [7]: > 25 µM | TGI [7]: > 25 µM | GI50 [8]: > 25 µM | TGI [8]: > 25 µM

Nc1c(C(=O)c2cccc(C#CCO)c2)cnn1-c1ccc(F)cc1
GI50 [1]: > 23.3 µM | TGI [1]: > 25 µM | GI50 [2]: > 25 µM | TGI [2]: > 25 µM | GI50 [3]: > 25 µM | TGI [3]: > 25 µM | GI50 [4]: > 25 µM | TGI [4]: > 25 µM | GI50 [5]: 5.18 µM | TGI [5]: > 25 µM | GI50 [6]: > 25 µM | TGI [6]: > 25 µM | GI50 [7]: > 25 µM | TGI [7]: > 25 µM | GI50 [8]: > 25 µM | TGI [8]: > 25 µM
